The record followed here is patent publication US12240840B2, “Amide-substituted heterocyclic compounds for the treatment of conditions related to the modulation of IL-12, IL-23 and/or IFN-alpha” (BRISTOL-MYERS SQUIBB COMPANY, priority 2018, dated 2025).

pIC50: −log10 of the molar value. Like-named read-outs stand apart in the source and are kept apart here.

The experiment has as its system IFNα-induced pSTAT5 (pY694) in CD3 positive cells of human whole blood. Put plainly: IFNα-Induced STAT Phosphorylation in Human Whole Blood. Format: cell-based. To be noted: 1 h compound incubation, 1000 U/mL recombinant human IFNα A/D for 15 min, pSTAT5 in CD3 positive population, read-out: Human WB IFNα-Induced Stat Phosph. (IC50). As to the method: IFNα-Induced STAT Phosphorylation in Human Whole Blood
After an hour long incubation with compound, human whole blood (drawn with either EDTA or ACD-A as anti-coagulant) was stimulated with 1000 U/mL recombinant human IFNα A/D (R&D Systems 11200-2) for 15 min. The stimulation was stopped by adding Fix/Lyse buffer (BD 558049). Cells were stained with a CD3 FITC antibody (BD 555916), washed, and permeabilized on ice using Perm III buffer (BD 558050). Cells were then stained with an Alexa-Fluor 647 pSTAT5 (pY694) antibody (BD 612599) for 30 min prior to analysis on the FACS Canto II. The amount of pSTAT5 expression was quantitated by median fluorescence intensity after gating on the CD3 positive population.
IFNα-Induced STAT Phosphorylation in Human Whole Blood Inhibition Data ND—no data available

What is called pIC50 is the negative decadic logarithm of the IC50, by convention in mol/L. As for `[2H]C([2H])([2H])NC(=O)c1nnc(NC(=O)C2CC2)cc1Nc1cc(F)cc(-c2cc(C(=O)N3CCS(=O)(=O)CC3)n(C)n2)c1OC` [Example 503], where the note is “Homo sapiens”, the pIC50 is 6.07.

For the molecule `COc1c(Nc2cc(NC(=O)C3CC3)nnc2C)cccc1-c1ncn(C)n1` [Example 409, N-(5-((2-methoxy-3-(1-methyl-1H-1,2,4-triazol-3-yl)phenyl)amino)-6-methylpyridazin-3-yl)cyclopropanecarboxamide], the pIC50 (Homo sapiens) was below 5.00. For the molecule `[2H]C([2H])([2H])NC(=O)c1nnc(NC(=O)C2CC2)cc1Nc1cccc(-c2cnn(CC(=O)NCC(CC)CC)n2)c1OC` [Example 428], the negative-log IC50 (pIC50) (Homo sapiens) is 5.58. On to `[2H]C([2H])([2H])NC(=O)c1nnc(NC(=O)C2CC2)cc1Nc1cccc(-c2ncc(C(=O)NCCN3CCN(C)CC3)s2)c1OC` [Example 322], for which the negative logarithm of the IC50 (pIC50) (Homo sapiens) is 7.10. With `[2H]C([2H])([2H])NC(=O)c1nnc(NC(=O)C2CC2)cc1Nc1cccc(-c2noc(C(CCC)C(=O)N3CCOCC3)n2)c1OC` (stereo not shown) [Example 42], the negative-log IC50 (pIC50) (Homo sapiens) is 6.64. As for `[2H]C([2H])([2H])NC(=O)c1nnc(Nc2cnn(C)n2)cc1Nc1cccc(-c2ncc(CO)s2)c1OC` [Example 386], where the note is “Homo sapiens”, the negative-log IC50 (pIC50) was 6.31. Take `COc1c(Nc2cc(NC(=O)C3CC3)ncc2C(N)=O)cccc1-c1cnn(CCNC(=O)OC(C)(C)C)n1` [Example 444]: the pIC50 (Homo sapiens) was 5.67. `COc1c(Nc2cc(NC(=O)C3CC3)nnc2C(N)=O)cccc1-c1noc(CN(C2CC2)S(C)(=O)=O)n1` [Example 60]: for the setting “Homo sapiens”, the pIC50 was 7.64. Take `[2H]C([2H])([2H])NC(=O)c1nnc(NC(=O)C2CC2)cc1Nc1cccc(-c2noc(C(=O)N3CCS(=O)(=O)CC3)n2)c1OC` [Example 20]: for the setting “Homo sapiens”, the pIC50 was 5.82.

With `[2H]C([2H])([2H])NC(=O)c1nnc(NC(=O)C2CC2)cc1Nc1cccc(-c2ccn(CCN)n2)c1OC` [Example 465], under “Homo sapiens”, the negative logarithm of the IC50 (pIC50) is 6.89. With `COCCN1CCN(Cc2cnc(-c3cccc(Nc4cc(NC(=O)C5CC5)nnc4C(N)=O)c3OC)s2)CC1` [Example 399], for the setting “Homo sapiens”, the pIC50 was 6.74. On to `[2H]C([2H])([2H])NC(=O)c1nnc(NC(=O)C2CC2)cc1Nc1cccc(-c2nc([C@H](C)NC(C)=O)no2)c1OC` [Example 183], for which the negative logarithm of the IC50 (pIC50) (Homo sapiens) is 5.77. In the case of `[2H]C([2H])([2H])NC(=O)c1nnc(NC(=O)C2CC2)cc1Nc1cccc(-c2ncc(C(=O)NCCCN(CC)CC)s2)c1OC` [Example 335], for the setting “Homo sapiens”, the pIC50 is 7.30. On the same count and under the same terms, as for `[2H]C([2H])([2H])NC(=O)c1nnc(NC(=O)C2CC2)cc1Nc1cccc(-c2nc([C@H](CO)NC(C)=O)no2)c1OC` [Example 199], the figure is 5.97. In the case of `[2H]C([2H])([2H])NC(=O)c1nnc(NC(=O)C2CC2)cc1Nc1cccc(-c2nc(CNC(=O)COC)no2)c1OC` [Example 152], the pIC50 (Homo sapiens) was 5.88. The same measure, in the same setting: as for `[2H]C([2H])([2H])NC(=O)c1cnc(NC(=O)CC)cc1Nc1cccc(-c2noc(COC)n2)c1OC` [Example 88], the figure is 6.64. The same measure, in the same setting: next, `[2H]C([2H])([2H])NC(=O)c1nnc(NC(=O)C2CC2)cc1Nc1cccc(-c2nc(CNC(=O)CN3CCN(C)CC3)no2)c1OC` [Example 160]: 5.75. Regarding `[2H]C([2H])([2H])NC(=O)c1cnc(NC(=O)C2CC2)cc1Nc1cccc(-c2ccn(CCNC(=O)COC)n2)c1OC` [Example 472], the pIC50 was 6.54. As to `[2H]C([2H])([2H])NC(=O)c1nnc(NC(=O)C2CC2)cc1Nc1cccc(-c2nc(CN3CCN(S(C)(=O)=O)CC3=O)no2)c1OC` [Example 141], the pIC50 (Homo sapiens) is 6.62. `[2H]C([2H])([2H])NC(=O)c1nnc(NC(=O)C2CC2)cc1Nc1cc(F)cc(-c2cc(C(=O)N(C)CCN(C)C)n(C)n2)c1OC` [Example 514]: the pIC50 (Homo sapiens) was 6.06. On to `COCc1nc(-c2cccc(Nc3cc(NC(=O)C4CC4)nnc3C(N)=O)c2OC)no1` [Example 67], for which the pIC50 (Homo sapiens) is 7.22. Same read-out and setting: next, `[2H]C([2H])([2H])NC(=O)c1nnc(NC(=O)C2CC2)cc1Nc1cccc(-c2cc(C(=O)NCCCOC)n(C)n2)c1OC` [Example 527]: 6.02; `[2H]C([2H])([2H])NC(=O)c1nnc(NC(=O)C2CC2)cc1Nc1cccc(-c2ncc(C(=O)NC3CCC(N(CC)CC)CC3)s2)c1OC` (stereo not shown) [Example 319]: 7.52. In the case of `[2H]C([2H])([2H])NC(=O)c1nnc(NC(=O)C2CC2)cc1Nc1cc(F)cc(-c2cc(C(=O)N3CCCN(C)CC3)n(C)n2)c1OC` [Example 517], the pIC50 (Homo sapiens) was 6.46. As to `COc1c(Nc2cc(N)nnc2C(N)=O)cccc1-c1noc(CN2CCN(S(C)(=O)=O)CC2)n1` [Example 109], the pIC50 (Homo sapiens) is below 5.00. Turning to `[2H]C([2H])([2H])NC(=O)c1nnc(NC(=O)C2CC2)cc1Nc1cccc(-c2nc([C@@H](C)NS(C)(=O)=O)no2)c1OC` [Example 195], where the note is “Homo sapiens”, the pIC50 is 6.14. As to `[2H]C([2H])([2H])NC(=O)c1nnc(NC(=O)C2CC2)cc1Nc1cccc(-c2noc(CNC(C)=O)n2)c1OC` [Example 31], the pIC50 (Homo sapiens) is 6.42. For `[2H]C([2H])([2H])NC(=O)c1nnc(NC(=O)C2CC2)cc1Nc1cccc(-c2ncc(CO)s2)c1OC` [Example 257], under “Homo sapiens”, the negative logarithm of the IC50 (pIC50) is 6.64. Turning to `COc1c(Nc2cc(NC(=O)C3CC3)nnc2C(N)=O)cccc1-c1ncc(C(=O)N2CCC(CCO)CC2)o1` [Example 416], where the note is “Homo sapiens”, the pIC50 is 6.34.

In the case of `[2H]C([2H])([2H])NC(=O)c1nnc(NC(=O)C2CC2)cc1Nc1cccc(-c2nc([C@H](C)NS(C)(=O)=O)no2)c1OC` [Example 184], for the setting “Homo sapiens”, the pIC50 is 6.89. For the molecule `[2H]C([2H])([2H])NC(=O)c1nnc(NC(=O)C2CC2)cc1Nc1cccc(-c2nc([C@@H](N)[C@@H](C)O)no2)c1OC` [Example 189], under “Homo sapiens”, the pIC50 is 7.00.

On to `COc1c(Nc2cc(NC(=O)C3CC3)nnc2C(N)=O)cccc1-c1noc([C@@H](C)NS(C)(=O)=O)n1` [Example 47], for which the negative logarithm of the IC50 (pIC50) (Homo sapiens) was 6.85.

Consider `[2H]C([2H])([2H])NC(=O)c1nnc(NC(=O)C2CC2)cc1Nc1cccc(-c2nc(C3(N)CC3)no2)c1OC` [Example 156], for which the pIC50 (Homo sapiens) is 6.20. Take `[2H]C([2H])([2H])NC(=O)c1nnc(NC(=O)C2CC2)cc1Nc1cccc(-c2nc(CNC)no2)c1OC` [Example 168]: the pIC50 (Homo sapiens) was 6.64.

For the molecule `[2H]C([2H])([2H])NC(=O)c1nnc(NC(=O)C2CC2)cc1Nc1cccc(-c2ncc(CNC(=O)COC)s2)c1OC` [Example 263], the pIC50 (Homo sapiens) was 6.08. Regarding `[2H]C([2H])([2H])NC(=O)c1nnc(NC(=O)C2CC2)cc1Nc1cccc(-n2cc(CN3CCOCC3)nn2)c1OC` [Example 2], for the setting “Homo sapiens”, the negative-log IC50 (pIC50) is 6.19. In the case of `[2H]C([2H])([2H])NC(=O)c1nnc(NC(=O)C2CC2)cc1Nc1cc(F)cc(-c2nc(CN3CCOCC3)no2)c1OC` [Example 230], under “Homo sapiens”, the pIC50 is 6.29.

Turning to `[2H]C([2H])([2H])NC(=O)c1cnc(Nc2cc(C(C)(C)O)ccn2)cc1Nc1cc(F)cc(-c2csc(C(=O)NCCOC)n2)c1OC` [Example 573], the negative-log IC50 (pIC50) (Homo sapiens) is 5.70. On the same count and under the same terms, next, `[2H]C([2H])([2H])NC(=O)c1nnc(NC(=O)C2CC2)cc1Nc1cccc(-c2noc(CN3CCC(O)C3)n2)c1OC` (stereo not shown) [Example 82]: 7.15; `[2H]C([2H])([2H])NC(=O)c1nnc(NC(=O)C2CC2)cc1Nc1cccc(-c2cc(C(=O)N3CCN(O)CC3)n(C)n2)c1OC` [Example 478]: 6.82; `[2H]C([2H])([2H])NC(=O)c1nnc(NC(=O)C2CC2)cc1Nc1cccc(-c2cc(C(=O)NCC)n(C)n2)c1OC` [Example 457]: 6.11. Regarding `[2H]C([2H])([2H])NC(=O)c1nnc(NC(=O)C2CC2)cc1Nc1cccc(-c2nc(CN3CCN(C)CC3)no2)c1OC` [Example 180], the pIC50 (Homo sapiens) was 6.70. For `COc1c(Nc2cc(NC(=O)C3CC3)nnc2C(N)=O)cccc1-c1noc(CNS(C)(=O)=O)n1` [Example 38], where the note is “Homo sapiens”, the negative-log IC50 (pIC50) is 7.52.

Turning to `[2H]C([2H])([2H])NC(=O)c1cnc(NC(=O)C2CC2)cc1Nc1cccc(-c2noc(CN3CCCS3(=O)=O)n2)c1OC` [Example 97], for the setting “Homo sapiens”, the negative logarithm of the IC50 (pIC50) is 7.52. With `[2H]C([2H])([2H])NC(=O)c1nnc(NC(=O)C2CC2)cc1Nc1cccc(-c2nc(CN(C)C(C)=O)no2)c1OC` [Example 173], under “Homo sapiens”, the pIC50 was 6.52. In the case of `[2H]C([2H])([2H])NC(=O)c1nnc(NC(=O)C2CC2)cc1Nc1cccc(-c2nc(CN3CCN(C(=O)OC(C)(C)C)CC3)no2)c1OC` [Example 135], for the setting “Homo sapiens”, the pIC50 is 5.70. For `[2H]C([2H])([2H])NC(=O)c1nnc(NC(=O)C2CC2)cc1Nc1cccc(-c2ccn(CCNC[C@H](O)CC)n2)c1OC` [Example 474], where the note is “Homo sapiens”, the pIC50 was 5.45. As to `[2H]C([2H])([2H])NC(=O)c1nnc(NC(=O)C2CC2)cc1Nc1cccc(-c2nc([C@H](NC(=O)OC(C)(C)C)[C@H](C)OC(C)(C)C)no2)c1OC` [Example 206], where the note is “Homo sapiens”, the pIC50 was below 5.00. Turning to `[2H]C([2H])([2H])NC(=O)c1nnc(NC(=O)C2CC2)cc1Nc1cccc(-c2nc([C@@H](C)N)no2)c1OC` [Example 191], the pIC50 (Homo sapiens) was 6.39. Regarding `[2H]C([2H])([2H])NC(=O)c1nnc(NC(=O)C2CC2)cc1Nc1cccc(-c2ncc(N)s2)c1OC` [Example 282], the pIC50 (Homo sapiens) was 6.74. On the same count and under the same terms, next, `[2H]C([2H])([2H])NC(=O)c1nnc(NC(=O)C2CC2)cc1Nc1cccc(-c2ncc(C(=O)NCCCN3CCN(C(C)C)CC3)s2)c1OC` [Example 341]: 6.96. `[2H]C([2H])([2H])NC(=O)c1nnc(NC(=O)C2CC2)cc1Nc1cccc(-c2ncc(C(=O)NC[C@H]3CCCN3CC)s2)c1OC` [Example 330]: where the note is “Homo sapiens”, the pIC50 was 7.15.
